Reference: patent US11174268B2, “Benzenesulfonamide compouds and their use as therapeutic agents” (Xenon Pharmaceuticals Inc., priority 2016, dated 2021)
Counter-ions that a name gives are not always drawn.

Tests used:
NaV1.6 = NaV1.6 (Homo sapiens (Human), UniProt Q9UQD0); assay: Sodium Influx Assay (Flux), NaV1.6; format: cell-based; conditions: Trex HEK293 cells, ANG2 dye, inactivated state;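 further: Tetracycline-induced cells, compounds applied for one hour at room temperature with modulators holding channels open, IC50 from percent inhibition of sodium influx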
NaV1.1 = NaV1.1 (Homo sapiens (Human), UniProt P35498); assay: Sodium Influx Assay (Flux), NaV1.1; format: cell-based; conditions: Trex HEK293 cells, ANG2 dye, inactivated state;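 further: channels co-expressed with human β1 subunit and held open by modulators, cells exposed to compounds for one hour at room temperature, IC50 from percent inhibition of influx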
NaV1.5 = NaV1.5 (Homo sapiens (Human), UniProt Q14524); assay: Sodium Influx Assay (Flux), NaV1.5; conditions: read-out: Flux NaV1.5 IC50; Trex HEK293 cells, ANG2 dye, inactivated state
NaV1.5, sequence (Q14524 other isoform, or with tags, fused parts or gaps): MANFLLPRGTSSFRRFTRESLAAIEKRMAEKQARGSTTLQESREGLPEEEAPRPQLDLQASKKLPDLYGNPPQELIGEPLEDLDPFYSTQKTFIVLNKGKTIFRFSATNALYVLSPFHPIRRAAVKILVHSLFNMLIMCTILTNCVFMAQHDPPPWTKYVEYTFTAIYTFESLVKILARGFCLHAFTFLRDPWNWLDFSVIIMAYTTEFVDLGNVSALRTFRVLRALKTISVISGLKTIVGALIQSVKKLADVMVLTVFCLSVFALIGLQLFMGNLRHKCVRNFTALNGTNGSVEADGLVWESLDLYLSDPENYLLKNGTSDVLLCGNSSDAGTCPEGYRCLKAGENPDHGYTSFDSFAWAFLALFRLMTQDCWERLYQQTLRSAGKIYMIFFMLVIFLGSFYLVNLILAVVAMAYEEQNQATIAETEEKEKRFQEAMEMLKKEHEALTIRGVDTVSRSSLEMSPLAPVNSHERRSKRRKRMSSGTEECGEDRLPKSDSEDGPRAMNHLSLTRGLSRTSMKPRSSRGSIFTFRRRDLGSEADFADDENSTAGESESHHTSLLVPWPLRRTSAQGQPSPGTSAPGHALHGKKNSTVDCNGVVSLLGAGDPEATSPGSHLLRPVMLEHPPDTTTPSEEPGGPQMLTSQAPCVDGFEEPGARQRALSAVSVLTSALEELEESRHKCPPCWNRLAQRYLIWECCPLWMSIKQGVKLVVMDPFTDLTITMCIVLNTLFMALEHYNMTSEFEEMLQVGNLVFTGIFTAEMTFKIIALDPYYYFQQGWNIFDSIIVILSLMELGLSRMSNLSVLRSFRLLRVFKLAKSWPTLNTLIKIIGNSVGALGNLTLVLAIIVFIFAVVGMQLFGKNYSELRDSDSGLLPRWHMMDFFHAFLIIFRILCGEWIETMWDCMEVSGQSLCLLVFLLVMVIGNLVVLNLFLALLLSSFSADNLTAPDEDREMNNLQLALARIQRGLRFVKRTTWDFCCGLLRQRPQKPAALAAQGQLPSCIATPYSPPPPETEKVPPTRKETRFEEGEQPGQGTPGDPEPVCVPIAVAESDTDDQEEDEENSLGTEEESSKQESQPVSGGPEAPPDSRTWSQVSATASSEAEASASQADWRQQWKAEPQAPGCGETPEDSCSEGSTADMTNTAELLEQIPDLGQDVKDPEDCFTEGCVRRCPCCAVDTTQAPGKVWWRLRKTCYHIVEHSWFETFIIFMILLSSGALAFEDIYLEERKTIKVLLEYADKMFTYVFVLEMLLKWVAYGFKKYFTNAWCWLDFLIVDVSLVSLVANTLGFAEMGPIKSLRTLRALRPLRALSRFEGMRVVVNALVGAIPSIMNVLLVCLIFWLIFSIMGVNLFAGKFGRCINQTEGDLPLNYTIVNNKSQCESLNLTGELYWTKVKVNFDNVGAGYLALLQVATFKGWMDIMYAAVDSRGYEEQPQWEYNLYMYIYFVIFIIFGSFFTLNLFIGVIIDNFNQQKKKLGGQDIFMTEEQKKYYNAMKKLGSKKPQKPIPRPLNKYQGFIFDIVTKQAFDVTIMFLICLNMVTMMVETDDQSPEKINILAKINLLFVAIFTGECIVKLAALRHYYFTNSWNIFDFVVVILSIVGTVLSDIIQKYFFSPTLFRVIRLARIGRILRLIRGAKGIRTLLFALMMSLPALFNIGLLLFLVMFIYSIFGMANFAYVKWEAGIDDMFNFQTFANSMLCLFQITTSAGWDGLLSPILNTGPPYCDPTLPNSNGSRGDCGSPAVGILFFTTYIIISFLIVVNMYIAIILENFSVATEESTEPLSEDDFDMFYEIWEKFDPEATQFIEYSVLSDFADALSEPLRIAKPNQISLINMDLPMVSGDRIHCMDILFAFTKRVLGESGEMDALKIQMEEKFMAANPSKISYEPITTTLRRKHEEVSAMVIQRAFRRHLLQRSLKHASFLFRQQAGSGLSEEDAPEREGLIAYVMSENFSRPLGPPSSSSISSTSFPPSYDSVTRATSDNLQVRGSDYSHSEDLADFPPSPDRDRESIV

| IC50 (NaV1.6) [µM] | IC50 (NaV1.1) [µM] | Compound | IC50 (NaV1.5) [µM] |
| --- | --- | --- | --- |
| 0.496 | 4.43 | O=S(=O)(Nc1cccc(F)n1)c1cc(Cl)c(NCc2ccccc2CN2CCC2)cc1F [Example 200, 4-((2-(azetidin-1-ylmethyl)benzyl)amino)-5-chloro-2-fluoro-N-(6-fluoropyridin-2-yl)benzenesulfonamide] | 15.4 |
| 0.605 | 26 | O=S(=O)(Nc1cscn1)c1cc(F)c(NCc2c(F)cccc2CN2CCC2)cc1F [Example 308, 4-((2-(azetidin-1-ylmethyl)-6-fluorobenzyl)amino)-2,5-difluoro-N-(thiazol-4-yl)benzenesulfonamide] | 26.4 |
| 1.93 | 3.99 | CC[C@H](Nc1cc(F)c(S(=O)(=O)Nc2cscn2)cc1Cl)c1ccccc1Cl [Example 222, (S)-5-chloro-4-((1-(2-chlorophenyl)propyl)amino)-2-fluoro-N-(thiazol-4-yl)benzenesulfonamide] | 8.35 |
| 0.241 | 18.1 | Cc1c(NCc2c(F)cccc2CN2CCC2(C)C)ccc(S(=O)(=O)Nc2cscn2)c1F [Example 306, 4-((2-((2,2-dimethylazetidin-1-yl)methyl)-6-fluorobenzyl)amino)-2-fluoro-3-methyl-N-(thiazol-4-yl)benzenesulfonamide] | 8.1 |
| 10.8 | 4.27 | C[C@H](Nc1cc(F)c(S(=O)(=O)Nc2nccs2)cc1Cl)c1cc(Cl)cc(Cl)c1 [Example 51, (S)-5-chloro-4-((1-(3,5-dichlorophenyl)ethyl)amino)-2-fluoro-N-(thiazol-2-yl)benzenesulfonamide] | 20.6 |
| 0.046 | 5.4 | O=S(=O)(Nc1cscn1)c1c(F)cc(NCc2c(F)cccc2CNC2CCC2)cc1F [Example 177, 4-((2-((cyclobutylamino)methyl)-6-fluorobenzyl)amino)-2,6-difluoro-N-(thiazol-4-yl)benzenesulfonamide formate] | 22.3 |
| 0.376 | 3 | C[C@H](Nc1cc(F)c(S(=O)(=O)Nc2nccs2)cc1Cl)c1cccc(Br)c1 [Example 7, (S)-4-((1-(3-bromophenyl)ethyl)amino)-5-chloro-2-fluoro-N-(thiazol-2-yl)benzenesulfonamide] | 9.68 |
| 9.44 | 14.1 | C[C@@H](Nc1cc(F)c(S(=O)(=O)Nc2cscn2)cc1Cl)c1cccc(CN(C)C)c1 [Example 254, (R)-5-chloro-4-((1-(3-((dimethylamino)methyl)phenyl)ethyl)amino)-2-fluoro-N-(thiazol-4-yl)benzenesulfonamide formate] | 3.62 |
| 0.534 | 30 | CN(Cc1ccccc1CNc1cc(F)c(S(=O)(=O)Nc2cscn2)c(F)c1)C(C)(C)C [Example 202, 4-((2-((tert-butyl(methyl)amino)methyl)benzyl)amino)-2,6-difluoro-N-(thiazol-4-yl)benzenesulfonamide 2,2,2-trifluoroacetate] | 30 |
| 3.67 | 3.63 | C[C@H](Nc1c(Cl)cc(S(=O)(=O)Nc2nccs2)cc1Cl)c1ccccc1F [Example 21, (S)-3,5-dichloro-4-((1-(2-fluorophenyl)ethyl)amino)-N-(thiazol-2-yl)benzenesulfonamide] | 2.89 |
| 0.091 | 4.77 | O=S(=O)(Nc1cscn1)c1cc(Cl)c(N[C@@H]2C[C@H](N3CCC3)c3ccccc32)cc1F [Example 321, 4-(((1R,3S)-3-(azetidin-1-yl)-2,3-dihydro-1H-inden-1-yl)amino)-5-chloro-2-fluoro-N-(thiazol-4-yl)benzenesulfonamide formate] | 28.1 |
| 2.31 | 18 | O=S(=O)(Nc1cscn1)c1c(F)cc(NCc2ccccc2CCN2CC(F)(F)C2)cc1F [Example 319, 4-((2-(2-(3,3-difluoroazetidin-1-yl)ethyl)benzyl)amino)-2,6-difluoro-N-(thiazol-4-yl)benzenesulfonamide] | 20 |
| 2.53 | 7.45 | C[C@H](Nc1cc(F)c(S(=O)(=O)Nc2cscn2)cc1Cl)c1ccccc1Cl [Example 92, (S)-5-chloro-4-((1-(2-chlorophenyl)ethyl)amino)-2-fluoro-N-(thiazol-4-yl)benzenesulfonamide] | 4.43 |
| 0.448 | 30 | CN(C)Cc1ccccc1CNc1cc(F)c(S(=O)(=O)Nc2cscn2)c(F)c1 [Example 271, 4-((2-((dimethylamino)methyl)benzyl)amino)-2,6-difluoro-N-(thiazol-4-yl)benzenesulfonamide] | 30 |
| 3.02 | 22.4 | C[C@H](Nc1cc(F)c(S(=O)(=O)Nc2cscn2)cc1Cl)c1cc(OC2COC2)ccc1F [Example 235, (S)-5-chloro-2-fluoro-4-((1-(2-fluoro-5-(oxetan-3-yloxy)phenyl)ethyl)amino)-N-(thiazol-4-yl)benzenesulfonamide] | 30 |
| 0.533 | 3.7 | O=S(=O)(Nc1nccs1)c1cc(Cl)c(NC2(c3cccc(F)c3)CCC2)cc1F [Example 106, 5-chloro-2-fluoro-4-((1-(3-fluorophenyl)cyclobutyl)amino)-N-(thiazol-2-yl)benzenesulfonamide] | 10.1 |
| 4.21 | 17.5 | O=S(=O)(Nc1cscn1)c1c(F)cc(NC2(c3ccccc3)CC2)cc1F [Example 231, 2,6-difluoro-4-[(1-phenylcyclopropyl)amino]-N-thiazol-4-yl-benzenesulfonamide] | 30 |
| 0.522 | 30 | CN(Cc1cccc(F)c1CNc1cc(F)c(S(=O)(=O)Nc2ccsn2)c(F)c1)C(C)(C)C [Example 189, 4-((2-((tert-butyl(methyl)amino)methyl)-6-fluorobenzyl)amino)-2,6-difluoro-N-(isothiazol-3-yl)benzenesulfonamide formate] | 30 |
| 0.152 | 2.53 | CCC(Nc1cc(F)c(S(=O)(=O)Nc2nccs2)cc1Cl)c1cccnc1 (stereo not drawn) [Example 58, 5-chloro-2-fluoro-4-((1-(pyridin-3-yl)propyl)amino)-N-(thiazol-2-yl)benzenesulfonamide] | 7.09 |
| 0.214 | 8.12 | Cc1cc(S(=O)(=O)Nc2cccc(F)n2)c(F)cc1NCc1ccccc1CN1CCC1 [Example 329, 4-((2-(azetidin-1-ylmethyl)benzyl)amino)-2-fluoro-N-(6-fluoropyridin-2-yl)-5-methylbenzenesulfonamide] | 28.4 |
| 0.679 | 3.38 | C[C@H](Nc1cc(F)c(S(=O)(=O)Nc2nccs2)cc1Cl)c1cccc(C(F)(F)F)c1 [Example 3, (S)-5-chloro-2-fluoro-N-(thiazol-2-yl)-4-((1-(3-(trifluoromethyl)phenyl)ethyl)amino)benzenesulfonamide] | 5.25 |
| 1.25 | 8.78 | C[C@H](Nc1cc(F)c(S(=O)(=O)Nc2cscn2)cc1Cl)c1cc(CC(F)F)ccc1F [Example 227, (S)-5-chloro-4-((1-(5-(2,2-difluoroethyl)-2-fluorophenyl)ethyl)amino)-2-fluoro-N-(thiazol-4-yl)benzenesulfonamide] | 8.6 |
| 3.18 | 15.9 | C[C@H](Oc1cc(F)c(S(=O)(=O)Nc2cscn2)cc1Cl)c1cccc(F)c1 [Example 118, (S)-5-chloro-2-fluoro-4-(1-(3-fluorophenyl)ethoxy)-N-(thiazol-4-yl)benzenesulfonamide] | 7.5 |
| 1.07 | 7.06 | C[C@H](Nc1cc(F)c(S(=O)(=O)Nc2cscn2)cc1Cl)c1cc(OC(F)F)ccc1F [Example 281, (S)-5-chloro-4-((1-(5-(difluoromethoxy)-2-fluorophenyl)ethyl)amino)-2-fluoro-N-(thiazol-4-yl)benzenesulfonamide] | 11 |
| 3.31 | 3.43 | Cc1ccc(F)cc1CNc1cc(F)c(S(=O)(=O)Nc2cscn2)cc1Cl [Example 147, 5-chloro-2-fluoro-4-((5-fluoro-2-methylbenzyl)amino)-N-(thiazol-4-yl)benzenesulfonamide] | 2.72 |
| 0.27 | 0.314 | O=S(=O)(Nc1nccs1)c1cc(Cl)c(NC2CCCc3ccncc32)cc1F (stereo not drawn) [Example 93, 5-chloro-2-fluoro-4-((5,6,7,8-tetrahydroisoquinolin-8-yl)amino)-N-(thiazol-2-yl)benzenesulfonamide 2,2,2-trifluoroacetate] | 8.47 |
| 0.214 | 1.11 | CC(C)C[C@H](Nc1cc(F)c(S(=O)(=O)Nc2nccs2)cc1Cl)c1ccccc1 [Example 109, (S)-5-chloro-2-fluoro-4-((3-methyl-1-phenylbutyl)amino)-N-(thiazol-2-yl)benzenesulfonamide] | 7.86 |
| 0.624 | 2.72 | CN1CC2(C1)CN(Cc1cccc(Cl)c1CNc1cc(F)c(S(=O)(=O)Nc3cscn3)cc1Cl)C2 [Example 292, 5-chloro-4-((2-chloro-6-((6-methyl-2,6-diazaspiro[3.3]heptan-2-yl)methyl)benzyl)amino)-2-fluoro-N-(thiazol-4-yl)benzenesulfonamide 2,2,2-trifluoroacetate] | 8.4 |

| Compound | IC50 (NaV1.6) [µM] | IC50 (NaV1.1) [µM] | IC50 (NaV1.5) [µM] |
| --- | --- | --- | --- |
| (R)-5-chloro-2-fluoro-4-((1-(isoquinolin-8-yl)ethyl)amino)-N-(thiazol-2-yl)benzenesulfonamide [Example 13] | 5.89 | 30 | 30 |
| O=S(=O)(Nc1cscn1)c1c(F)cc(NCc2c(F)cccc2CN2CCC23CCC3)cc1F [Example 173, 4-((2-((1-azaspiro[3.3]heptan-1-yl)methyl)-6-fluorobenzyl)amino)-2,6-difluoro-N-(thiazol-4-yl)benzenesulfonamide formate] | 0.05 | 7.22 | 19.5 |
